Test results: patent publication US11690834B2, “Composition, uses, and methods of treating spinal disc degeneration through sonic hedgehog signaling pathway” (New York Society For the Relief Of The Ruptured and …, priority 2017, dated 2023)
“Also recorded” adds a separate entry of the source.

Tests used:
[1] = system: SHH signaling pathway in the intervertebral disc; assay: Intraperitoneal SAG in adult mice, real-time RT-qPCR of lumbar discs for SHH and its downstream targets; type: in vivo, mouse; settings: middle-aged mice, intraperitoneal injection
[2] = system: SHH signaling pathway in the intervertebral disc; assay: as above; type: in vivo, mouse; settings: i.p., 10 mg/kg body weight, every day for seven days, vs water
Protocol: To test the potential for activation of SHH or SHH signaling for disc therapy and treatment of lower back pain, a small molecule agonist of hedgehog signaling pathway called SAG that activates the smoothened receptor downstream of the ligand was administered to mice. Adult mice were administered intraperitoneally either with water or SAG dissolved in water at a concentration of with 10 mg/kg body weight. The mice were treated every day for seven days. Next day, the lumbar discs were collected for RNA isolation and real-time RT-qPCR analysis for SHH and its downstream targets. […] Upregulation of SHH mRNA expression was also associated with an increase in the expression of its downstream targets Ptch1 and Gli1.

one-year-old mouse disc = settings: in vitro; cited from earlier work

Row | Structure (SMILES) | expression of ECM protein ACAN [1] | expression of ECM marker Col2 [2] | expression of ECM marker Sox9 [2] | expression of downstream target Gli1 [2] | expression of downstream target Ptch1 [2] | mRNA expression of SHH compared to controls [2] | ECM production (one-year-old mouse disc) | increase in cell proliferation (one-year-old mouse disc) | stimulation of Hedgehog signaling (one-year-old mouse disc)
1 | CNC1CCC(N(Cc2cccc(-c3ccncc3)c2)C(=O)c2sc3ccccc3c2Cl)CC1 (stereo not drawn) [SAG] | upregulation | increased expression; also recorded: upregulation | increased expression; also recorded: upregulation | increase; also recorded: upregulation | increase; also recorded: upregulation | increased; also recorded: up-regulation |  |  | 
2 | O=C1Nc2cc(Br)ccc2/C1=C1/Nc2ccccc2/C1=N\O [BIO] |  |  |  |  |  |  | increased | Not observed | increased
